The target of test [1] is Cytochrome P450 2D6 (Homo sapiens, UniProt P10635). Description: Inhibition of human CYP2D6 by radiometric assay. The format is ADME.
Test [2] has as its target Cytochrome P450 3A4 (Homo sapiens, UniProt P08684). Description: Inhibition of human CYP3A4 by radiometric assay. The format is ADME.

Chain of Cytochrome P450 3A4 (P08684 whole entry): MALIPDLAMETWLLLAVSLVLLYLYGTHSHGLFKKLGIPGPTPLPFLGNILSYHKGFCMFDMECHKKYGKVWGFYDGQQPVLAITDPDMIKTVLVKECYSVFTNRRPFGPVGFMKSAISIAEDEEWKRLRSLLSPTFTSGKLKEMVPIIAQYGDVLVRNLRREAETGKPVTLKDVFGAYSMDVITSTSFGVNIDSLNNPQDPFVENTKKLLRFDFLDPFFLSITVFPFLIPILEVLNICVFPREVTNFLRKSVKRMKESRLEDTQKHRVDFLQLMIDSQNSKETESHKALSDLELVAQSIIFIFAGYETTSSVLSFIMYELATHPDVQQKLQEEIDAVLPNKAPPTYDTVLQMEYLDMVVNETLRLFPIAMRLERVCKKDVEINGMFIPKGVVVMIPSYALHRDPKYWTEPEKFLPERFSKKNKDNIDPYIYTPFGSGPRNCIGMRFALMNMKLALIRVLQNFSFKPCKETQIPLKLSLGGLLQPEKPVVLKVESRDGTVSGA
Chain of Cytochrome P450 2D6 (P10635 whole entry): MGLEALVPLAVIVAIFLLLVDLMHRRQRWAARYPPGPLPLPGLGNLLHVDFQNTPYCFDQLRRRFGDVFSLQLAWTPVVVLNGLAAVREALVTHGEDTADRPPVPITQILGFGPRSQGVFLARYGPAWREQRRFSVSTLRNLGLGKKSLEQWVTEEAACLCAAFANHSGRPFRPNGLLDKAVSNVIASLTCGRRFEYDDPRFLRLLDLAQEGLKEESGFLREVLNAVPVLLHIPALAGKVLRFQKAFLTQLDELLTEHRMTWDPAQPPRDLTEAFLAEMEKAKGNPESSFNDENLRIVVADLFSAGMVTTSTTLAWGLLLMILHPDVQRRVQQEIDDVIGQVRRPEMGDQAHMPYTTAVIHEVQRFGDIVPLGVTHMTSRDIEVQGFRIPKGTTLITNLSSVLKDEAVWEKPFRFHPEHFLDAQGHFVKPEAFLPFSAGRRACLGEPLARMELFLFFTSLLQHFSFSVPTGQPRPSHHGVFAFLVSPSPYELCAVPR

By IC50 is commonly meant the concentration that gives 50% inhibition. Turning to `CC(=O)O[C@H]1[C@H](Oc2c(-c3ccc(O)cc3)oc3cc(O)cc(O)c3c2=O)O[C@@H](C)[C@H](O)[C@H]1O`, the 50% inhibitory concentration (IC50) in test [1] is over 100 µM; in test [2], 59 µM.
For `C/C1=C\CC(C)(C)/C=C/C(=O)/C(C)=C/CC1` [ZERUMBONE] the same measures were over 100 µM and 21.8 µM.
The like results for `CC(=O)O[C@@H]1[C@@H](OC(C)=O)[C@@H](O)[C@H](Oc2c(-c3ccc(O)cc3)oc3cc(O)cc(O)c3c2=O)O[C@H]1C` were, in that order, 50.5 µM and 20.6 µM.
Consider `CC(=O)O[C@@H]1[C@@H](O)[C@H](C)O[C@@H](Oc2c(-c3ccc(O)cc3)oc3cc(O)cc(O)c3c2=O)[C@@H]1OC(C)=O`, for which the IC50 was over 100 µM in test [1] and 55.8 µM in test [2].
For `CC(=O)O[C@@H]1[C@@H](O)[C@H](C)O[C@@H](Oc2c(-c3ccc(O)cc3)oc3cc(O)cc(O)c3c2=O)[C@@H]1O` the same measures were over 100 µM and 98.3 µM.
With `COc1c(-c2ccc(O)cc2)oc2cc(O)cc(O)c2c1=O` [ISOKAEMPFERIDE], the figures for the IC50 in test [1] and in test [2] were 4.63 µM and 36.2 µM, respectively.
The like results for `C/C1=C\[C@H](O)C[C@@]2(C)O[C@@H]2CC(C)(C)/C=C/C1=O` were, in that order, over 100 µM and 62.5 µM.
On to `COc1ccc(-c2oc3cc(O)cc(O)c3c(=O)c2OC)cc1` [ERMANIN], for which the values for the 50% inhibitory concentration (IC50) in test [1] and in test [2] were 45.5 µM and 21.8 µM, respectively.
On to `CCCCC/C=C/C(=O)CCc1ccc(O)c(OC)c1` [SHOGAOL], for which the 50% inhibitory concentration (IC50) in test [1] was over 100 µM; in test [2], 77.7 µM.
For `C/C1=C\[C@H](O)C[C@]2(C)O[C@@H]2CC(C)(C)/C=C/C1=O` the same measures were over 100 µM and 42.6 µM.
The like results for `C/C1=C\CC(C)(C)/C=C/C(=O)/C(C)=C/[C@H](O)C1` were, in that order, over 100 µM and 35.5 µM.
For `CC(=O)O[C@@H]1[C@@H](OC(C)=O)[C@H](C)O[C@@H](Oc2c(-c3ccc(O)cc3)oc3cc(O)cc(O)c3c2=O)[C@@H]1OC(C)=O` the same measures were 43.3 µM and 14.4 µM.
`CC(=O)O[C@@H]1[C@@H](O)[C@@H](OC(C)=O)[C@H](Oc2c(-c3ccc(O)cc3)oc3cc(O)cc(O)c3c2=O)O[C@H]1C`: the IC50 in test [1] was over 100 µM; in test [2], 31.6 µM.
For `C/C1=C\CC[C@@]2(C)O[C@@H]2CC(C)(C)/C=C/C1=O` [ZERUMBONE EPOXIDE] the same measures were over 100 µM and 48.4 µM.

The values above are taken from ChEMBL document CHEMBL1151241, “Sesquiterpenes and flavonol glycosides from Zingiber aromaticum and their CYP3A4 and CYP2D6 inhibitory activities” (J Nat Prod, 2004).
